From PMC5427921, “PRL3 phosphatase active site is required for binding the putative magnesium transporter CNNM3” (Scientific Reports, 2017)

Molecular target: T1, PRL3 (Homo sapiens, UniProt O75365)
T1 construct: gene PTP4A3; residues 1-169 in pET15b, His6 tag with thrombin site, N-terminal Gly-Ser-His extension left; wild type; expressed in E. coli
Test: phosphorylation of catalytic Cys104 followed on Phos-tag SDS-PAGE
Assay type: biochemical
Conditions: no magnesium; 43 µM PRL3, 20 mM HEPES, 100 mM NaCl, 10 mM DTT, pH 7.0; 30 °C and room temperature; estimate from concentration dependence; covalent phosphocysteine formed

T1 sequence (O75365 1-169): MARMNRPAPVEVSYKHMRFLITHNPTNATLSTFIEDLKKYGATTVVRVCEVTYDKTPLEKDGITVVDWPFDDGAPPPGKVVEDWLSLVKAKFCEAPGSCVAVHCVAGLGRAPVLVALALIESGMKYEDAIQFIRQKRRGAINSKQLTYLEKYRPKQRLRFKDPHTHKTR

Km: > 2000 µM
SMILES: Nc1ncnc2c1ncn2[C@@H]1O[C@H](COP(=O)(O)OP(=O)(O)OP(=O)(O)O)[C@@H](O)[C@H]1O [ATP]
